According to patent publication US8288548B2, “Oxazolo[5-4-b]pyridin-5-yl compounds” (Eli Lilly and Company, priority 2010, dated 2012):
Marks after values point to notes of the source that are not given here.

Tests used:
[1] = tested on: 786-O human renal cell carcinoma cells; test: 786-O xenograft model in combination with sunitinib; assay type: in vivo, athymic nude mice; details: BID x 28
Procedure: Female athymic nude mice are obtained from Harlan Labs at a weight of 24-26 g. […] Tumor size is monitored by caliper measurement twice per week. […] The compound is dosed orally in a 0.2 mL volume of 1% HEC, 0.25% TWEEN® 80, 0.05% antifoam (HEC/TWEEN®). […] Tumor volume is monitored twice per week and efficacy (tumor growth inhibition) is compared relative to vehicle-treated control animals. […] Statistical assessment of synergy was performed using two-way repeated measures analysis of variance on log tumor volume vs. time.

[2] = tested on: A2780 human ovarian carcinoma cells; test: A2780 xenograft model, tumor growth inhibition; assay type: in vivo, CD1 nu/nu mice; details: 4 day on, 3 d off
Procedure: (§1) Female CD1 nu/nu mice are obtained from Charles River Laboratories at approximately 22-25 g. After 1 week acclimation, 2×10^6 A2780 human ovarian carcinoma cells are injected subcutaneously in the rear flank of each mouse in a 0.2 mL volume in a 1:1 mixture of cell culture media and BD […]™ matrix. Tumor size is monitored by caliper measurement twice per week. When the average tumor size reaches 150 mm^3, animals are randomized into groups of 10. p38 MAP kinase inhibitor treatment is initiated after randomization. Example 2 is dosed orally in a 0.2 mL volume of 1% HEC, 0.25% TWEEN® 80, 0.05% antifoam (HEC/TWEEN®). The compound is dosed at doses of 1, 3, and 10 mg/kg. Dosing is performed three times per day (TID) on a schedule of 4 days on, 3 days off. Three cycles of dosing is performed. Tumor volume is monitored twice per week during the dosing period, and efficacy (tumor growth inhibition) is monitored relative to a vehicle control group (n=10 animals). At 1, 2 and 8 hours after the last p38 MAP kinase inhibitor dose, plasma is obtained from animals to determine the circulating levels of compound in the animals.

[3] = Plasma concentration after last dose in the A2780 xenograft model; assay type: in vivo, CD1 nu/nu mice
Procedure: as §1

OPM-2 cells = test: OPM-2 multiple myeloma xenograft model; assay type: in vivo, CB-17 SCID mice; details: PO, BID
Procedure: Female CB-17 SCID mice are obtained from Taconic at 20-22 g weight. After acclimating for one week, mice are irradiated with a dose of 2.5 Gray. Within 24 hours following irradiation, mice are injected sub-cutaneously in the rear flank with 1.0×10^7 OPM-2 cells in a 0.2 mL volume in a 1:1 mixture of cell culture media and BD […]™ matrix. Tumor size is monitored by caliper measurement twice per week. When the tumor size reaches 100-150 mm^3, animals are randomized into dose groups. Compound treatment is initiated after randomization. Example 2 is dosed orally in a 0.2 mL volume of 1% HEC, 0.25% TWEEN® 80, 0.05% antifoam (HEC/TWEEN®). The compound is dosed at doses of 15 and 30 mg/kg. Dosing is performed two times per day (BID) for 28 days of treatment. Tumor volume is monitored twice per week during the dosing period, and efficacy (tumor growth inhibition) is monitored relative to a vehicle control group (n=10 animals).

With `CCN(CC)CCNC(=O)c1c(C)[nH]c(/C=C2\C(=O)Nc3ccc(F)cc32)c1C` [Sunitinib] the “% Tumor Growth Inhibition” value ([1]; Sunitinib 10 mg/kg PO, Day 17) was −1.6%, the “% Tumor Growth Inhibition” value ([1]; Sunitinib 10 mg/kg PO, Day 21) was 2.9% and the “% Tumor Growth Inhibition” value ([1]; Sunitinib 10 mg/kg PO, Day 24) was −16.3%. The “% Tumor Growth Inhibition” value ([1]; Sunitinib 10 mg/kg PO, Day 28) was −21.2%, the “% Tumor Growth Inhibition” value ([1]; Sunitinib 20 mg/kg PO, Day 17) was −55.9% and the “% Tumor Growth Inhibition” value ([1]; Sunitinib 20 mg/kg PO, Day 21) was 31.5%. For the same molecule, the “% Tumor Growth Inhibition” value ([1]; Sunitinib 20 mg/kg PO, Day 24) was 18%, the “% Tumor Growth Inhibition” value ([1]; Sunitinib 20 mg/kg PO, Day 28) was 34.5% and the “% Tumor Growth Inhibition” value ([1]; Sunitinib 20 mg/kg PO, Day 31) was 35.4* %.

For `COCC[C@H](C)Nc1nc2ccc(-c3nc(C(C)(C)CO)[nH]c3-c3ccc(F)cc3F)nc2o1.Cl` [Example 3, 2-[5-(2,4-Difluorophenyl)-4-[2-[[(1S)-3-methoxy-1-methyl-propyl]amino]oxazolo[5,4-b]pyridin-5-yl]-1H-imidazol-2-yl]-2-methyl-propan-1-ol, hydrochloride], the “% Tumor Growth Inhibition” value ([1]; Example 3 15 mg/kg PO, Day 17) was −35.5%, the “% Tumor Growth Inhibition” value ([1]; Example 3 15 mg/kg PO, Day 21) was −23% and the “% Tumor Growth Inhibition” value ([1]; Example 3 15 mg/kg PO, Day 24) was −52.4%. For the same molecule, the “% Tumor Growth Inhibition” value ([1]; Example 3 15 mg/kg PO, Day 28) was −74.1* % and the “% Tumor Growth Inhibition” value ([1]; Example 3 15 mg/kg PO, Day 31) was −58.8* %.

For “2-[5-(2,4-Difluorophenyl)-4-[2-[[(1S)-3-methoxy-1-methyl-propyl]amino]oxazolo[5,4-b]pyridin-5-yl]-1H-imidazol-2-yl]-2-methyl-propan-1-ol, methanesulfonate [Example 2]”, the “Tumor Growth Inhibition (%)” value ([2]; 1 mg/kg PO TID, Day 20) was 70.6%, the “Tumor Growth Inhibition (%)” value ([2]; 1 mg/kg PO TID, Day 23) was 76.6% and the “Tumor Growth Inhibition (%)” value ([2]; 1 mg/kg PO TID, Day 26) was 76%. The “Tumor Growth Inhibition (%)” value ([2]; 1 mg/kg PO TID, Day 29 (final)) was 78.3%, the “Tumor Growth Inhibition (%)” value ([2]; 3 mg/kg PO TID, Day 20) was 32.5% and the “Tumor Growth Inhibition (%)” value ([2]; 3 mg/kg PO TID, Day 23) was 47.7%. The “Tumor Growth Inhibition (%)” value ([2]; 3 mg/kg PO TID, Day 26) was 42.7%, the “Tumor Growth Inhibition (%)” value ([2]; 3 mg/kg PO TID, Day 29 (final)) was 37.7% and the “Tumor Growth Inhibition (%)” value ([2]; 10 mg/kg PO TID, Day 20) was 60%. The “Tumor Growth Inhibition (%)” value ([2]; 10 mg/kg PO TID, Day 23) was 71.2%, the “Tumor Growth Inhibition (%)” value ([2]; 10 mg/kg PO TID, Day 26) was 72.8% and the “Tumor Growth Inhibition (%)” value ([2]; 10 mg/kg PO TID, Day 29 (final)) was 74.8%. For the same molecule, the “Mean Plasma Concentration (μM) at time (hour) post-last dose” value (shortened to “Mean Plasma Concentration (μM) at time”) ([3]; 1 mg/kg PO TID, 1 hour post-last dose) was 0.0263 µM, the “Mean Plasma Concentration (μM) at time” value ([3]; 1 mg/kg PO TID, 2 hour post-last dose) was 0.0146 µM and the “Mean Plasma Concentration (μM) at time” value ([3]; 3 mg/kg PO TID, 1 hour post-last dose) was 0.0526 µM. The “Mean Plasma Concentration (μM) at time” value ([3]; 3 mg/kg PO TID, 2 hour post-last dose) was 0.0604 µM, the “Mean Plasma Concentration (μM) at time” value ([3]; 3 mg/kg PO TID, 3 hour post-last dose) was 0.0042 µM and the “Mean Plasma Concentration (μM) at time” value ([3]; 10 mg/kg PO TID, 1 hour post-last dose) was 0.4952 µM. For the same molecule, the “Mean Plasma Concentration (μM) at time” value ([3]; 10 mg/kg PO TID, 2 hour post-last dose) was 0.3978 µM, the “Mean Plasma Concentration (μM) at time” value ([3]; 10 mg/kg PO TID, 3 hour post-last dose) was 0.0243 µM and the “Mean tumor size (mm3)” value (OPM-2 cells; 15 mpk, Day 4) was 101.69 mm3. The “Mean tumor size (mm3)” value (OPM-2 cells; 15 mpk, Day 8) was 87.96 mm3, the “Mean tumor size (mm3)” value (OPM-2 cells; 15 mpk, Day 11) was 104.9 mm3 and the “Mean tumor size (mm3)” value (OPM-2 cells; 15 mpk, Day 15) was 104.21 mm3. The “Mean tumor size (mm3)” value (OPM-2 cells; 15 mpk, Day 18) was 120.17 mm3, the “Mean tumor size (mm3)” value (OPM-2 cells; 15 mpk, Day 21) was 182.47 mm3 and the “Mean tumor size (mm3)” value (OPM-2 cells; 15 mpk, Day 25) was 169.53 mm3. For the same molecule, the “Mean tumor size (mm3)” value (OPM-2 cells; 15 mpk, Day 29) was 214.28 mm3, the “Mean tumor size (mm3)” value (OPM-2 cells; 15 mpk, Day 33) was 326.29 mm3 and the “Mean tumor size (mm3)” value (OPM-2 cells; 15 mpk, Day 36) was 384.59 mm3. The “Mean tumor size (mm3)” value (OPM-2 cells; 15 mpk, Day 43) was 628.46 mm3, the “Mean tumor size (mm3)” value (OPM-2 cells; 15 mpk, Day 46) was 700.62 mm3 and the “Mean tumor size (mm3)” value (OPM-2 cells; 15 mpk, Day 49) was 937.29 mm3. For the same molecule, the “Mean tumor size (mm3)” value (OPM-2 cells; 15 mpk, Day 53) was 1138.19 mm3, the “Mean tumor size (mm3)” value (OPM-2 cells; 30 mpk, Day 4) was 97.8 mm3 and the “Mean tumor size (mm3)” value (OPM-2 cells; 30 mpk, Day 8) was 90.78 mm3. The “Mean tumor size (mm3)” value (OPM-2 cells; 30 mpk, Day 11) was 118.46 mm3, the “Mean tumor size (mm3)” value (OPM-2 cells; 30 mpk, Day 15) was 95.34 mm3 and the “Mean tumor size (mm3)” value (OPM-2 cells; 30 mpk, Day 18) was 103.71 mm3. For the same molecule, the “Mean tumor size (mm3)” value (OPM-2 cells; 30 mpk, Day 21) was 115.16 mm3, the “Mean tumor size (mm3)” value (OPM-2 cells; 30 mpk, Day 25) was 155.27 mm3 and the “Mean tumor size (mm3)” value (OPM-2 cells; 30 mpk, Day 29) was 154.83 mm3. The “Mean tumor size (mm3)” value (OPM-2 cells; 30 mpk, Day 33) was 224.14 mm3, the “Mean tumor size (mm3)” value (OPM-2 cells; 30 mpk, Day 36) was 243.32 mm3 and the “Mean tumor size (mm3)” value (OPM-2 cells; 30 mpk, Day 43) was 407.07 mm3. The “Mean tumor size (mm3)” value (OPM-2 cells; 30 mpk, Day 46) was 527.14 mm3, the “Mean tumor size (mm3)” value (OPM-2 cells; 30 mpk, Day 49) was 642.22 mm3 and the “Mean tumor size (mm3)” value (OPM-2 cells; 30 mpk, Day 53) was 812.48 mm3.
